A value given as a limit tells only on which side of the number the result lay.

These results are taken from patent publication US20230348426A1, “OXOPYRROLIDINE FPR2 AGONISTS” (Bristol-Myers Squibb Company, priority 2020, published 2023).

The target in one assay is human FPR1 (Homo sapiens (Human), UniProt P21462). The experiment in a line: FPR1 cyclic adenosine monophosphate (cAMP) assay. Type of assay: cell-based. Conditions: CHO cells overexpressing human FPR1; forskolin 10 µM; inhibition of cAMP production; read-out: hFPR1 cAMP EC50. From the text: (§1) N-formyl peptide receptors (FPRs) are a family of chemo attractant receptors that facilitate leukocyte response during inflammation. FPRs belong to the seven-transmembrane G protein-coupled receptor superfamily and are linked to inhibitory G-proteins (Gi). Three family members (FPR1, FPR2 and FPR3) have been identified in humans and are predominantly found in myeloid cells with varied distribution and have also been reported in multiple organs and tissues. After agonist binding, the FPRs activate a multitude of physiological pathways, such as intra cellular signaling transduction, Ca^2+ mobilization and transcription. The family interacts with a diverse set of ligands that includes proteins, polypeptides and fatty acid metabolites which activate both pro-inflammatory and pro-resolution downstream responses. FPR2 and FPR1 Cyclic Adenosine Monophosphate (cAMP) Assays were used to measure the activity of the compounds in this patent.
FPR2 and FPR1 Cyclic Adenosine Monophosphate (cAMP) Assays. A mixture of forskolin (5 µM final for FPR2 or 10 µM final for FPR1) and IBMX (200 µM final) were added to 384-well Proxiplates (Perkin-Elmer) pre-dotted with test compounds in DMSO (1% final) at final concentrations in the range of 0.020 nM to 100 µM. Chinese Hamster Ovary cells (CHO) overexpressing human FPR1 or human FPR2 receptors were cultured in F-12 (Ham’s) medium supplemented with 10% qualified FBS, 250 µg/ml zeocin and 300 µg/ml hygromycin (Life Technologies). Reactions were initiated by adding 2,000 human FPR2 cells per well or 4,000 human FPR1 cells per well in Dulbecco’s PBS (with calcium and magnesium) (Life Technologies) supplemented with 0.1% BSA (Perkin-Elmer). The reaction mixtures were incubated for 30 min at room temperature. The level of intracellular cAMP was determined using the HTRF HiRange cAMP assay reagent kit (Cisbio) according to manufacturer’s instruction. Solutions of cryptate conjugated anti-cAMP and d2 flurorophore-labelled cAMP were made in a supplied lysis buffer separately. Upon completion of the reaction, the cells were lysed with equal volume of the d2-cAMP solution and anti-cAMP solution. […] The potency and activity of a compound to inhibit cAMP production was then determined by fitting to a 4-parametric logistic equation from a plot of cAMP level versus compound concentrations.

The next assay concerns the target human FPR2 (Homo sapiens (Human), UniProt P25090). The experiment in a line: FPR2 cyclic adenosine monophosphate (cAMP) assay. Type of assay: cell-based. The settings on record: CHO cells overexpressing human FPR2; forskolin 5 µM; inhibition of cAMP production; read-out: hFPR2 cAMP2 EC50.
Description: as §1
FPR2 and FPR1 Cyclic Adenosine Monophosphate (cAMP) Assays. A mixture of forskolin (5 µM final for FPR2 or 10 µM final for FPR1) and IBMX (200 µM final) were added to 384-well Proxiplates (Perkin-Elmer) pre-dotted with test compounds in DMSO (1% final) at final concentrations in the range of 0.020 nM to 100 µM. Chinese Hamster Ovary cells (CHO) overexpressing human FPR1 or human FPR2 receptors were cultured in F-12 (Ham’s) medium supplemented with 10% qualified FBS, 250 µg/ml zeocin and 300 µg/ml hygromycin (Life Technologies). Reactions were initiated by adding 2,000 human FPR2 cells per well or 4,000 human FPR1 cells per well in Dulbecco’s PBS (with calcium and magnesium) (Life Technologies) supplemented with 0.1% BSA (Perkin-Elmer). The reaction mixtures were incubated for 30 min at room temperature. The level of intracellular cAMP was determined using the HTRF HiRange cAMP assay reagent kit (Cisbio) according to manufacturer’s instruction. Solutions of cryptate conjugated anti-cAMP and d2 flurorophore-labelled cAMP were made in a supplied lysis buffer separately. Upon completion of the reaction, the cells were lysed with equal volume of the d2-cAMP solution and anti-cAMP solution. After a 1-h room temperature incubation, time-resolved fluorescence intensity was measured using the Envision (Perkin-Elmer) at 400 nm excitation and dual emission at 590 nm and 665 nm. A calibration curve was constructed with an external cAMP standard at concentrations ranging from 1 µM to 0.1 pM by plotting the fluorescent intensity ratio from 665 nm emission to the intensity from the 590 nm emission against cAMP concentrations. The potency and activity of a compound to inhibit cAMP production was then determined by fitting to a 4-parametric logistic equation from a plot of cAMP level versus compound concentrations.

Sequence of human FPR1 (P21462 whole entry): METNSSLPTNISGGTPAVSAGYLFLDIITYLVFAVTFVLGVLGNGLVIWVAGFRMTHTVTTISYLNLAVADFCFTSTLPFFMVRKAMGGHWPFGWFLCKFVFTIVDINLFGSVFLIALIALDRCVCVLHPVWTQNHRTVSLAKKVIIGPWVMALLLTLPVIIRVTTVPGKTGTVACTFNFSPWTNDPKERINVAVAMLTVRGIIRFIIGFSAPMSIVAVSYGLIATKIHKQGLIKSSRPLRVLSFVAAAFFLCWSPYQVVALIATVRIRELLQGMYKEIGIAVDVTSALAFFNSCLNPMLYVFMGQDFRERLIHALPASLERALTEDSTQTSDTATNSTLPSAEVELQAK
Sequence of human FPR2 (P25090 whole entry): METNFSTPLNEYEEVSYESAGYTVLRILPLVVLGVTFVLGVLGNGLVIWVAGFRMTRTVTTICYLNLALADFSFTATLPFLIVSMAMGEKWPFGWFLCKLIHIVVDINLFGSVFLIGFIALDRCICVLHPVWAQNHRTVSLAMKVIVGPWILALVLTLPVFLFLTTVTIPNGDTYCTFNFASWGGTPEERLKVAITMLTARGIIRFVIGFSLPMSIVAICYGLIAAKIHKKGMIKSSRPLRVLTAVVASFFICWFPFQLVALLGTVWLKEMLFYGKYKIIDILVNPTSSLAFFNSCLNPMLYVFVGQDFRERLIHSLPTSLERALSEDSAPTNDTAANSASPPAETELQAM

As to `COc1cc(F)c([C@@H]2CN(c3ccccc3P(C)(C)=O)C(=O)[C@H]2NC(=O)c2ccc(OC(F)F)cc2)c(F)c1` [Example 31], the EC50 at human FPR1 amounted to 150 nM; on human FPR2, 10 nM.

With `COc1ccnc(N2C[C@@H](c3c(F)cc(OC)cc3F)[C@H](NC(=O)c3ccc(OC(F)F)cc3)C2=O)c1` [Example 32], the EC50 was 960 nM at human FPR1 and 18 nM on human FPR2.

Regarding `COc1cc(F)c([C@@H]2CN(c3ncccc3F)C(=O)[C@H]2NC(=O)c2ccc(OC(F)F)cc2)c(F)c1` [Example 33], the EC50 on human FPR1 turned out to be 1610 nM; at human FPR2, 5 nM.

In the case of `COc1cc(F)c([C@@H]2CN(c3cccn(C)c3=O)C(=O)[C@H]2NC(=O)c2ccc(OC(F)F)cc2)c(F)c1` [Example 34], the values for the EC50 on human FPR1 and at human FPR2 were 300 nM and 3.8 nM, respectively.

For the compound `COc1cc(N2CCN(C)CC2)nc(N2C[C@@H](c3c(F)cc(OC)cc3F)[C@H](NC(=O)c3ccc(OC(F)F)cc3)C2=O)c1` [Example 35], the EC50 was more than 10000 nM at human FPR1 and 3.1 nM on human FPR2.

With `COCCn1cccc(N2C[C@@H](c3c(F)cc(OC)cc3F)[C@H](NC(=O)c3ccc(OC(F)F)cc3)C2=O)c1=O` [Example 36], the results for the EC50 at human FPR1 and at human FPR2 were 30 nM and 5.5 nM, respectively.

Turning to `COCCn1cccc(N2C[C@@H](c3c(F)cc(OC)cc3F)[C@H](NC(=O)c3ccc(OC(F)(F)F)cc3)C2=O)c1=O` [Example 37], the 50% effective concentration (EC50) at human FPR1 is 16 nM; at human FPR2, 8.9 nM.

Turning to `CCn1cccc(N2C[C@@H](c3c(F)cc(OC)cc3F)[C@H](NC(=O)c3ccc(OC(F)F)cc3)C2=O)c1=O` [Example 38], the results for the EC50 on human FPR1 and at human FPR2 were 18 nM and 5.1 nM, respectively.

Turning to `COc1cc(N2C[C@@H](c3c(F)cc(OC)cc3F)[C@H](NC(=O)c3ccc(Cl)cc3)C2=O)nc(N2C[C@@H]3C[C@H]2CN3C)c1` [Example 40], the EC50 on human FPR1 is 2600 nM; on human FPR2 it was 0.6 nM.

On to `COCC(CN)n1cccc(N2C[C@@H](c3c(F)cc(OC)cc3F)[C@H](NC(=O)c3ccc(OC(F)F)cc3)C2=O)c1=O` (stereo partly drawn) [Example 41], for which the concentration giving a half-maximal response (EC50) was 110 nM on human FPR1 and 0.6 nM at human FPR2.

Regarding `COc1cc(F)c([C@@H]2CN(c3nc(N4C[C@@H](C)N(C)[C@@H](C)C4)ccc3F)C(=O)[C@H]2NC(=O)c2ccc(OC(F)F)cc2)c(F)c1` [Example 42], the EC50 at human FPR1 is 730 nM; at human FPR2, 0.7 nM.

In the case of `COCC(CN)n1cccc(N2C[C@@H](c3c(F)cc(OC)cc3F)[C@H](NC(=O)c3ccc(OC(F)F)cc3)C2=O)c1=O` (stereo partly drawn) [Example 44], the results for the EC50 on human FPR1 and on human FPR2 were 10 nM and 1 nM, respectively.

With `COc1ccc([C@@H]2CN(c3cccn(CC(F)F)c3=O)C(=O)[C@H]2NC(=O)c2ccc(OC(F)(F)F)cc2)c(F)c1` [Example 45], the EC50 on human FPR1 was determined as 4.3 nM; on human FPR2, 1 nM.

On to `COc1cc(F)c([C@@H]2CN(c3nc(N4CCC4=O)ccc3F)C(=O)[C@H]2NC(=O)c2ccc(OC(F)F)cc2)c(F)c1` [Example 46], for which the EC50 at human FPR1 amounted to 2 nM; on human FPR2, 1 nM.

Take `COc1cc(F)c([C@@H]2CN(c3cccn(CC(O)C(F)(F)F)c3=O)C(=O)[C@H]2NC(=O)c2ccc(OC(F)(F)F)cc2)c(F)c1` (stereo partly drawn) [Example 47]: the EC50 was 150 nM at human FPR1 and 1.1 nM on human FPR2.

Regarding `COc1cc(F)c([C@@H]2CN(c3cccc(N4C[C@@H](C)N(C)[C@@H](C)C4)n3)C(=O)[C@H]2NC(=O)c2ccc(OC(F)F)cc2)c(F)c1` [Example 48], the values for the EC50 at human FPR1 and at human FPR2 were 940 nM and 1.1 nM, respectively.

For `COc1cc(N2C[C@@H]3C[C@H]2CN3C)nc(N2C(=O)[C@@H](NC(=O)c3ccc(Cl)cc3)[C@H](c3c(F)cc(OC)cc3F)[C@H]2C)c1` [Example 49], the figures for the EC50 at human FPR1 and on human FPR2 were 2000 nM and 1.1 nM, respectively.

For `COc1cc(F)c([C@@H]2CN(c3nc(N4C[C@H]5C[C@@H]4CN5C)ccc3F)C(=O)[C@H]2NC(=O)c2ccc(OC(F)F)cc2)c(F)c1` [Example 50], the concentration giving a half-maximal response (EC50) was 1700 nM at human FPR1 and 1.2 nM on human FPR2.
